Data from patent US6544727B1, “Methods and devices for the removal of psoralens from blood products” (Cerus Corporation, priority 1995, dated 2003).

Columns and labels:
[1] = Batch adsorption of S-59 and photoproducts from illuminated PC, HPLC (Examples 27, 28); assay type: physicochemical
Method: The peak corresponding to S-59 is present in the chromatograms representing non-illuminated S-59 (top) and illuminated S-59 (middle) at a retention time of approximately 12 minutes. The other peaks in the chromatogram representing illuminated S-59 (middle) (besides the injection peak at about 3 minutes) correspond to S-59 photoproducts formed during illumination. Note that the peaks appear at time (t)=18 minutes and t=20 minutes are plasma species and are not related to S-59. The peaks which remain in the bottom panel are not S-59 photoproducts, so removal of S-59 and photoproducts was essentially complete in this case as indicated by HPLC (i.e., non-detectable by HPLC).

[2] = Residual S-59 and photoproducts D and E in fresh frozen plasma after batch RD (Tables R, T); assay type: physicochemical, human
Method: Samples taken from each bag after a 1-hour incubation were analyzed for S-59 and photoproduct removal. The results (n=7) for residual S-59 and photoproducts D and E (two of primary photoproducts formed during illumination, as described above) are presented in Table R (ND=not detectable; 1 hour incubation).
The experiments were performed in the manner described above.

[3] = system: platelets; experiment: In vitro platelet function after photochemical treatment and 8-hour RD treatment (Tables O, P); assay type: cell-based, human; conditions: RD 8 hours; for pH: T: 150 μM S-59, 3 Joules/cm^2 UVA; for (%) Aggregation / (%) HSR / (%) Microvesicle Formation / (%) p-Selectin-Positive / ATP / Bicarbonate / Glucose / Lactate / Morphology (Out Of 400) / Platelet Shape Change / Platelet count / pCO2 / pO2: T: S-59, UVA
Method: Two ABO-matched single donor PCs containing 2−5×10^11 platelets in approximately 300 mL of 35% plasma and 65% PAS III were pooled and redivided into two identical units in PL 2410 Plastic containers (Baxter). One unit (the control) was immediately placed on a platelet shaker and stored at approximately 22° C. The other unit (the test) was treated with 150 μM S-59 and 3 Joules/cm^2 UVA. After treatment, the platelets suspension was transferred into a second PL 2410 Plastic container containing a RD. Contact between platelets and the RD occurred for a period of approximately 8 hours, then the platelet suspension was transferred to a new PL 2410 Plastic container for storage. The time of blood donation was defined as day 0. Treatment with S-59, UVA (320-400 nm), and the RD was performed on day 1. Six replicate experiments were carried out, each with a different pool of two ABO-matched single-donor platelet concentrates.
For the evaluation of in vitro platelet function, platelet samples were withdrawn from both the control and test units before treatment and after treatment on days 2, 5, and 7. The following parameters were analyzed: pH, pO2, pCO2, bicarbonate concentration, platelet count, morphology, aggregation, platelet shape change, hypotonic shock response, lactate production, glucose consumption, ATP secretion, p-selectin expression, and microvesicle formation. Several of these assays, including pH, morphology score, platelet shape change, and hypotonic shock response, have been reported in the literature to correlate with in- vivo post-transfusion recovery and survival. The Student's paired t-test was used for statistical analysis.
For platelet count measurement, the volume of the control unit is approximately 5% less than the volume of the paired test unit; thus, for statistical analysis the platelet count per μL for the test unit was adjusted by a factor of […]. The pH of the treated platelets was maintained at 6.91±0.05 after seven days of storage following treatment.

## Cc1oc2c(C)c3oc(=O)cc(C)c3cc2c1COCCN [Compound 2, 4′-(4-amino-2-oxa)butyl-4,5′,8-trimethylpsoralen]
[1]; at 2 hours, Amberlite XAD-4 10 g/300 mL, illuminated platelets in 35% plasma/[…]% PAS III, HPLC
  removal of S-59: greater than 99%
[1]; batch devices, appropriate adsorbents
  S-59 and low molecular weight photoproducts adsorbed from PCs: greater than 99%
[2]; RD with […] g Dowex XUS 43493, approximately one hour incubation
  residual S-59 in fresh frozen plasma: ≤ 0.75 µM
[2]; Table R, 150 μM S-59 in plasma after 3 J/cm^2 UVA, before RD
  Concentration in plasma, Pre-Removal: 83.30 µM
[2]; Table T, 150 μM S-59 in plasma after 3 J/cm^2 UVA, before RD
  Concentration in plasma, Pre-removal (±SD): 88.7 ± 4.1 µM
[3]; Day 2
  pH: 6.94 ± 0.05
  (%) Aggregation: 88 ± 4%
  (%) HSR: 52 ± 5 %
  (%) Microvesicle Formation: 0.9 ± 0.2%
  (%) p-Selectin-Positive: 49 ± 5 %
  ATP: 1.0 ± 0.1 Nmoles Per 10^8 Platelets
  Bicarbonate: 6.3 ± 0.3 mM
  Glucose: 4.6 ± 0.9 mM
  Lactate: 4.7 ± 1.2 mM
  Morphology (Out Of 400): 302 ± 16
  Platelet Shape Change: 1.0 ± 0.1
  Platelet count: 1545 ± 247 × 10^−3/μL
  pCO2: 29.2 ± 3.8 mm Hg
  pO2: 68.3 ± 19.4 mm Hg
[3]; Day 5
  pH: 6.92 ± 0.06
  (%) Aggregation: 81 ± 7%
  (%) HSR: 45 ± 3%
  (%) Microvesicle Formation: 0.8 ± 0.2%
  (%) p-Selectin-Positive: 58 ± 5%
  ATP: 0.7 ± 0.2 Nmoles Per 10^8 Platelets
  Bicarbonate: 4.8 ± 0.5 mM
  Glucose: 2.1 ± 1.1 mM
  Lactate: 8.5 ± 1.6 mM
  Morphology (Out Of 400): 290 ± 20
  Platelet Shape Change: 0.9 ± 0.1
  Platelet count: 1525 ± 246 × 10^−3/μL
  pCO2: 23.7 ± 3.5 mm Hg
  pO2: 84.8 ± 22.5 mm Hg
[3]; Day 7
  pH: 6.91 ± 0.05
  (%) Aggregation: 81 ± 4%
  (%) HSR: 48 ± 8%
  (%) Microvesicle Formation: 1.7 ± 1.7%
  (%) p-Selectin-Positive: 60 ± 7%
  ATP: 0.6 ± 0.2 Nmoles Per 10^8 Platelets
  Bicarbonate: 4.2 ± 0.7 mM
  Glucose: 0.8 ± 0.8 mM
  Lactate: 10.8 ± 1.3 mM
  Morphology (Out Of 400): 274 ± 12
  Platelet Shape Change: 0.9 ± 0.3
  Platelet count: 1500 ± 219 × 10^−3/μL
  pCO2: 20.7 ± 2.4 mm Hg
  pO2: 88.8 ± 20.2 mm Hg
